Experimental data reported in paper PMC6277434, “Discovery of a potent HMG-CoA reductase degrader that eliminates statin-induced reductase accumulation and lowers cholesterol” (Nature Communications, 2018).
“And” between values parts separate entries of the source, which are not always exact repeats. Identical values can stand only once. Like-named read-outs stand apart in the source and are kept apart here.

Legend:
HMGCR = target: T1, HMGCR (Cricetulus griseus, UniProt P00347); experiment: Immunoblotting of endogenous HMGCR protein in CHO-7 (or CHG) cells; assay type: cell-based, Chinese hamster; details: for increase of HMGCR protein (maximum increment): CHO-7 cells, statin 16 h, DMSO = 1; for endogenous HMGCR protein level (immunoblot), mean: CHG cells, 16 h, DMSO = 100
T1 construct: endogenous in cells; host or cells: CHO-7, CHG, SRD-13A, SRD-15
T1 sequence (P00347 1-887): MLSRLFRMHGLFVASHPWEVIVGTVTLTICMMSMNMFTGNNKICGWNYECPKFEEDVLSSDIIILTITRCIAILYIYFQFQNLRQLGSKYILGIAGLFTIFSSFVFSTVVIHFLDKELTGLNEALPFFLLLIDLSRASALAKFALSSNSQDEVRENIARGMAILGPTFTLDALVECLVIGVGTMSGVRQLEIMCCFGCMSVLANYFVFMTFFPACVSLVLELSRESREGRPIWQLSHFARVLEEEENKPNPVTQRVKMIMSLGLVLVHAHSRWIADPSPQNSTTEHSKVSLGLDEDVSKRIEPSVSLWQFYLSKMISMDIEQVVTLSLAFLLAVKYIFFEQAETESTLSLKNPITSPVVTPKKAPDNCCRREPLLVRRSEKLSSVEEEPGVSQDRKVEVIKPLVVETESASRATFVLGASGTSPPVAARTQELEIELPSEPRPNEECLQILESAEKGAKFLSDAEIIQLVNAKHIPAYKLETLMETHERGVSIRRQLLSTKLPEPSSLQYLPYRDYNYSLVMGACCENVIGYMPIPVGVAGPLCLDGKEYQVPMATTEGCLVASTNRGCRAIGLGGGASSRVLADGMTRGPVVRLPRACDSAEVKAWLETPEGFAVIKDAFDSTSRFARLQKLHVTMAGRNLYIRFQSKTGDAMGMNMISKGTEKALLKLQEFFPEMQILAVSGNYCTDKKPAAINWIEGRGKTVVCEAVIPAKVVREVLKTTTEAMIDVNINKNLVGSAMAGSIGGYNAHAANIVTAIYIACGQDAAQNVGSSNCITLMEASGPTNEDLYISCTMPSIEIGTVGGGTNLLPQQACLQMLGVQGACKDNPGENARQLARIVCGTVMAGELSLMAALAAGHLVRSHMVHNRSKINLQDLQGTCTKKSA
Protocol: CHO-7 (Chinese hamster ovary cell, a clone of CHO-K1 cell line selected for growth in LPDS) and Huh7 (a human hepatocellular carcinoma cell line), SRD-13A (a Scap-deficient CHO-7 cell line) and SRD-15 (an Insig-1 and Insig-2-deficient CHO-7 cell line) were generous gifts from Russell Debose-Boyd at UT Southwestern Medical Center, USA. All cells were grown in a monolayer at 37 °C with 5% CO2. Huh7 cells were maintained in medium A supplemented with 10% FBS. CHO-7 and SRD-15 cells were maintained in medium B supplemented with 5% FBS. SRD-13A cells were maintained in medium B with 5% FBS, 5 μg ml^−1 cholesterol, 1 mM sodium mevalonate, 10 μM sodium oleate. No cell lines used in this study were found in the database of commonly misidentified cell lines that is maintained by ICLAC and NCBI Biosample. The cell lines have not been authenticated recently. No test for mycoplasma contamination was performed.
(§1) Cells were harvested and homogenized in the RIPA buffer (50 mM Tris-HCl, pH 8.0, 150 mM NaCl, 2 mM MgCl2, 1.5% NP-40, 0.1% SDS, and 0.5% sodium deoxycholate) supplemented with protease cocktail inhibitor, 10 μM MG-132, 10 μg ml^−1 leupeptin and 1 mM phenylmethylsulfonyl fluoride. The protein concentrations of lysates were determined using BCA method (Beyotime). Samples were mixed with the membrane protein solubilization buffer (62.5 mM Tris-HCl, pH 6.8, 15% SDS, 8 M urea, 10% glycerol, and 100 mM DTT) plus the 4× loading buffer (150 mM Tris-HCl, pH 6.8, 12% SDS, 30% glycerol, 6% 2-mercaptoethanol, and 0.02% bromophenol blue) and incubated for 30 min at 37 °C. Proteins were resolved by SDS-PAGE and transferred to nitrocellulose membranes (GE Healthcare). Immnoblots were blocked with 5% non-fat milk in TBS containing 0.075% Tween-20 (TBST) and probed with indicated antibodies overnight at 4 °C. After washing in TBST for five times, blots were incubated with HRP-conjugated secondary antibodies for 2 h at room temperature. Immunoreactivity was developed with Clarity Western ECL chemiluminescent substrates (170–5061, Bio-Rad). Western blot images were captured by Amersham Imager 600 (GE Healthcare), and integrated optical intensities of each band were quantified by Image-Pro Plus 6 software (Media Cybernetics). Uncropped blots are shown in Supplementary Figs. 9–13.

Hmgcr mRNA = experiment: RT-qPCR of Hmgcr mRNA in CHO-7 cells; assay type: cell-based, Chinese hamster; details: CHO-7 cells, statin 16 h (lovastatin up to 10 μM), DMSO = 1
Protocol: (§2) Cells were treated as described in corresponding figure legends, then total RNA was extracted from cells or mouse livers using TRI Reagent (T9424, Sigma-Aldrich). Equal amounts of RNA from cells or mice receiving the same treatment were pooled were used for cDNA synthesis with oligo dT and reverse transcriptase MLV (Promega). Gene expression was analyzed by quantitative real-time PCR on a Stratagene Mx30005PTM Q-PCR Systems. The primers used were listed in Supplementary Tables 2–4.

HMGCR (TM1-8)-GFP [1] = target: T2, HMGCR (TM1-8)-GFP (Cricetulus griseus, UniProt P00347)
T2 sequence (P00347 1-346): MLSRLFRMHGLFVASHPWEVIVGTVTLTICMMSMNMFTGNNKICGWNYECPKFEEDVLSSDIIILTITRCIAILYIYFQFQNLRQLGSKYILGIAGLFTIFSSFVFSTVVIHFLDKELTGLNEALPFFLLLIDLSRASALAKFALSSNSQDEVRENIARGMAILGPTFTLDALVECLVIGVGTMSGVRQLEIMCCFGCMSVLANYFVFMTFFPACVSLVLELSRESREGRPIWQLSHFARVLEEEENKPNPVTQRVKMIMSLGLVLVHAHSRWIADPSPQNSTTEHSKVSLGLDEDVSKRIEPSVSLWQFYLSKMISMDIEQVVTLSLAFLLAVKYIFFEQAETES

HMGCR (TM1-8)-GFP [2] = target: T2, HMGCR (TM1-8)-GFP; experiment: HMGCR (TM1-8)-GFP fluorescent assay (high-content imaging) in CHG cells
HMGCR (TM1-8)-GFP [3] = target: T2, HMGCR (TM1-8)-GFP; experiment: Immunoblotting of overexpressed HMGCR (TM1-8)-GFP in CHG cells; assay type: cell-based, hamster; design: corresponding to the amino acids from 1 to 346 of hamster HMGCR; expressed in transfected cells; details: 16 h, DMSO = 100
Protocol: Fig. 2 A reporting system that measures HMGCR degradation. a Schematic of the HMGCR (TM1-8)-GFP fusion protein. […] Data are from three independent experiments and presented as mean ± SD. Source data are provided as a Source Data File.
as §1

LXR signaling pathway [4] = experiment: RT-qPCR of LXR target genes (SREBP-1c, ABCA1, ABCG8) in Huh-7 cells; assay type: cell-based, human; details: 16 h
Protocol: as §2, with “2–4. […]” for “2–4.”
pathway. a-c Huh-7 cells were treated with indicated compounds for 16 h and then harvested for total RNA isolation and RT-qPCR. Cells treated with LXR agonist T0901317 w ere used as positive controls. The relative mRNA levels of SREBP -1c (a), ABCA1 (b) and ABCG8 (c) were quantified . GAPDH was the reference gene. The relative mRNA level in DMSO-treated cells was defined as 1. Data are from 3 independent experiments and presented as mean ± SD.
(1 picture or pasted object on this page, not shown here)

LXR signaling pathway [5] = tested on: LXR signaling pathway; design: method as in earlier work; details: previous studies ref 2 (Yang, C. et al. J. Biol. Chem. 281, 27816-27826 (2006)); cited from earlier work
[6] = 16 h, read-out: HMGCR (TM1-8)-GFP fluorescent intensity, mean
[7] = read-out: Mean (HMGCR (TM1-8)-GFP signal relative to 0 μM = 100)

SMILES: CC[C@H](C)C(=O)O[C@H]1C[C@H](O)C=C2C=C[C@H](C)[C@H](CC[C@@H](O)C[C@@H](O)CC(=O)O)[C@H]21 [pravastatin]
- increase of HMGCR protein (maximum increment) (HMGCR): ~12 fold
- increase of Hmgcr mRNA abundance (Hmgcr mRNA): 2.4 fold

SMILES: CC(C)n1c(/C=C/C(O)CC(O)CC(=O)O)c(-c2ccc(F)cc2)c2ccccc21 (centres unmarked) [fluvastatin]
- increase of HMGCR protein (maximum increment) (HMGCR): ~11 fold
- increase of Hmgcr mRNA abundance (Hmgcr mRNA): 2.6 fold

SMILES: CC(C)c1nc(N(C)S(C)(=O)=O)nc(-c2ccc(F)cc2)c1/C=C/[C@@H](O)C[C@@H](O)CC(=O)O [rosuvastatin]
- increase of HMGCR protein (maximum increment) (HMGCR): ~17 fold
- increase of Hmgcr mRNA abundance (Hmgcr mRNA): 2.3 fold

SMILES: CC(C)CCC[C@@H](C)[C@H]1CC[C@H]2[C@@H]3CC=C4C[C@@H](O)CC[C@]4(C)[C@H]3CC[C@]12C [Cholesterol]
- endogenous HMGCR protein level (immunoblot), mean (HMGCR; 1 uM): 100.862
- endogenous HMGCR protein level (immunoblot), mean (HMGCR; 3 uM): 95.8793
- endogenous HMGCR protein level (immunoblot), mean (HMGCR; 10 uM): 57.8709
- DC50 (HMGCR (TM1-8)-GFP [1]): ~30.4 µM and 30.4 µM
- remaining activity at 0.001 µM (HMGCR (TM1-8)-GFP [2]; [6]): 100%
- remaining activity at 0.01 µM (HMGCR (TM1-8)-GFP [2]; [6]): 100%
- remaining activity at 0.1 µM (HMGCR (TM1-8)-GFP [2]; [6]): 95.9%
- remaining activity at 0.3 µM (HMGCR (TM1-8)-GFP [2]; [6]): 88.9%
- remaining activity at 1 µM (HMGCR (TM1-8)-GFP [2]; [6]): 77.2%
- remaining activity at 3 µM (HMGCR (TM1-8)-GFP [2]; [6]): 66.6%
- remaining activity at 10 µM (HMGCR (TM1-8)-GFP [2]; [6]): 65.5%
- remaining activity at 20 µM (HMGCR (TM1-8)-GFP [2]; [6]): 58.9%
- remaining activity at 30 µM (HMGCR (TM1-8)-GFP [2]; [6]): 47%
- overexpressed HMGCR (TM1-8)-GFP protein level (anti-GFP immunoblot), mean (HMGCR (TM1-8)-GFP [3]; 1 uM): 93.1421
- overexpressed HMGCR (TM1-8)-GFP protein level (anti-GFP immunoblot), mean (HMGCR (TM1-8)-GFP [3]; 3 uM): 90.7374
- overexpressed HMGCR (TM1-8)-GFP protein level (anti-GFP immunoblot), mean (HMGCR (TM1-8)-GFP [3]; 10 uM): 74.0079

SMILES: CCC(C)(C)C(=O)O[C@H]1C[C@@H](C)C=C2C=C[C@H](C)[C@H](CC[C@@H]3C[C@@H](O)CC(=O)O3)[C@H]21 [simvastatin]
- increase of HMGCR protein (maximum increment) (HMGCR): ~ 15 fold
- increase of Hmgcr mRNA abundance (Hmgcr mRNA): 3.5 fold

SMILES: CC(C)=CCC[C@@H](C)[C@H]1CC[C@@]2(C)C3=C(CC[C@]12C)[C@@]1(C)CC[C@H](O)C(C)(C)[C@@H]1CC3 [lanosterol]
- expression of LXR target genes (SREBP-1c, ABCA1 and ABCG8) mRNA (LXR signaling pathway [4]): did not activate the LXR target genes
- activation of LXR (LXR signaling pathway [5]): no effect

SMILES: CC(C)c1c(C(=O)Nc2ccccc2)c(-c2ccccc2)c(-c2ccc(F)cc2)n1CC[C@@H](O)C[C@@H](O)CC(=O)O [atorvastatin]
- increase of HMGCR protein (maximum increment) (HMGCR): ~9 fold
- increase of Hmgcr mRNA abundance (Hmgcr mRNA): 1.8 fold

SMILES: C=CCC(O)(CC=C)CC[C@@H](C)C1CCC2C3C(CC[C@@]21C)[C@@]1(C)CC[C@H](O)C(C)(C)C1=C[C@@H]3O (some centres unmarked) [Compound 58]
- DC50 (HMGCR (TM1-8)-GFP [1]): 4.5 µM
- remaining activity at 0.156 µM (HMGCR (TM1-8)-GFP [2]; [7]): 106%
- remaining activity at 0.313 µM (HMGCR (TM1-8)-GFP [2]; [7]): 110%
- remaining activity at 0.625 µM (HMGCR (TM1-8)-GFP [2]; [7]): 104%
- remaining activity at 1.25 µM (HMGCR (TM1-8)-GFP [2]; [7]): 92.1%
- remaining activity at 2.5 µM (HMGCR (TM1-8)-GFP [2]; [7]): 68.2%
- remaining activity at 5 µM (HMGCR (TM1-8)-GFP [2]; [7]): 43.8%
- remaining activity at 10 µM (HMGCR (TM1-8)-GFP [2]; [7]): 25.3%

SMILES: C=CCC(O)CCCCC[C@@H](C)C1CCC2C3C(CC[C@@]21C)[C@@]1(C)CC[C@H](O)C(C)(C)C1=C[C@@H]3O (some centres unmarked) [Compound 126]
- DC50 (HMGCR (TM1-8)-GFP [1]): 2.45 µM
- remaining activity at 0.156 µM (HMGCR (TM1-8)-GFP [2]; [7]): 76.4%
- remaining activity at 0.313 µM (HMGCR (TM1-8)-GFP [2]; [7]): 72.3%
- remaining activity at 0.625 µM (HMGCR (TM1-8)-GFP [2]; [7]): 58.7%
- remaining activity at 1.25 µM (HMGCR (TM1-8)-GFP [2]; [7]): 50.3%
- remaining activity at 2.5 µM (HMGCR (TM1-8)-GFP [2]; [7]): 44.6%
- remaining activity at 5 µM (HMGCR (TM1-8)-GFP [2]; [7]): 45.5%
- remaining activity at 10 µM (HMGCR (TM1-8)-GFP [2]; [7]): 44.4%
